Test results: ChEMBL document CHEMBL3399967, “Design and discovery of 2-oxochromene derivatives as liver X receptor β-selective agonists” (Bioorg Med Chem Lett, 2015); call rule not given here
pEC50: −log10 of the molar value.

How the values were obtained:
HepG2 [1] = assay: Ratio of induction of ABCA1 mRNA expression to SREBP-1c mRNA expression in human HepG2 cells at 5 uM; format: functional
HepG2 [2] = assay: Induction of SREBP-1c mRNA expression in human HepG2 cells at 5 uM relative to control; format: functional
HepG2 [3] = assay: Induction of ABCA1 mRNA expression in human HepG2 cells at 5 uM relative to control; format: functional
[4] = target: T1, Oxysterols receptor LXR-alpha (Homo sapiens, UniProt Q13133); assay: Agonist activity at Gal4-tagged LXRalpha (unknown origin) expressed in CHOK1 cells after 24 hrs by luciferase reporter gene assay; format: cell-based, CHO-K1; conditions: for pEC50: read-out: EC50; for EC50: cho-k1
T1 sequence (Q13133 whole entry): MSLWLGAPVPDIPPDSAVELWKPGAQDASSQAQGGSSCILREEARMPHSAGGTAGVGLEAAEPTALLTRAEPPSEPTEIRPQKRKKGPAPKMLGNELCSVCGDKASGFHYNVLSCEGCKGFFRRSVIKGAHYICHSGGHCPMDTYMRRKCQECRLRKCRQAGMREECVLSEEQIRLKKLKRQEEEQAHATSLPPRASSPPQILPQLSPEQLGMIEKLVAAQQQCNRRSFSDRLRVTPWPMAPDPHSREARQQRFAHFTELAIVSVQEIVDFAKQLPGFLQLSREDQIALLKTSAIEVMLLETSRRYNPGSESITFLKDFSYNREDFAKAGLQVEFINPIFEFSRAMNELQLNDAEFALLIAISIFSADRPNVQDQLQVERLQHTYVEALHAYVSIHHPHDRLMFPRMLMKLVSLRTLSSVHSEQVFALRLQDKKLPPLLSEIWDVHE

[5] = target: T2, Oxysterols receptor LXR-beta (Homo sapiens, UniProt P55055); assay: Agonist activity at Gal4-tagged LXRbeta (unknown origin) expressed in CHOK1 cells after 24 hrs by luciferase reporter gene assay; format: cell-based, CHO-K1; conditions: for pEC50: read-out: EC50; for EC50: cho-k1
T2 sequence (P55055 whole entry): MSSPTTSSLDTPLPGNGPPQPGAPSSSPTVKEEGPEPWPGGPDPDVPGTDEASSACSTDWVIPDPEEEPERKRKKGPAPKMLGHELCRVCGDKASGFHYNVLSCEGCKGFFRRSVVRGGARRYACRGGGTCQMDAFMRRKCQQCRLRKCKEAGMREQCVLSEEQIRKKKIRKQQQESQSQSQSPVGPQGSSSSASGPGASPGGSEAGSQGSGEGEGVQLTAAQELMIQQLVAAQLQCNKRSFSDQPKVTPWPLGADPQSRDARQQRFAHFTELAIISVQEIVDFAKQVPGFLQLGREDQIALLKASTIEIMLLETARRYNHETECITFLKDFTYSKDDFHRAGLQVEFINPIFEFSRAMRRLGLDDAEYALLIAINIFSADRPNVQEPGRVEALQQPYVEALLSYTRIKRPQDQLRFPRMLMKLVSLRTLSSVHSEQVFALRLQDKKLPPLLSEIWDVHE

O=c1cc(C(F)(F)F)c2cc3c4c(c2o1)CCCN4CCC3
Ratio (HepG2 [1]): 2.3
fold change (FC) (HepG2 [2]): 3.9
fold change (FC) (HepG2 [3]): 9.1

CC(C)c1cc(=O)oc2c3c4c(cc12)CCCN4CCC3
Ratio (HepG2 [1]): 3.6
fold change (FC) (HepG2 [2]): 1.4
fold change (FC) (HepG2 [3]): 5

CCN(CC)c1ccc2c(C(F)(F)F)cc(=O)oc2c1
Ratio (HepG2 [1]): 0.4
fold change (FC) (HepG2 [2]): 3.3
fold change (FC) (HepG2 [3]): 1.3

CCCc1cc2c(C(F)(F)F)cc(=O)oc2c(CCC)c1OCCCCN1C(=O)CSC1=O
pEC50 [4]: 5.59
pEC50 [5]: 5.85

CCCc1cc2c(C(F)(F)F)cc(=O)oc2c(CCC)c1OCCCCN1C(=O)CN(C)C1=O
pEC50 [4]: 5.59
pEC50 [5]: 5.89

CCCc1cc2c(C(F)(F)F)cc(=O)oc2c(CCC)c1OCCCCN1C(=O)CCC1=O
pEC50 [5]: 5.85

CCCc1cc2c(C(F)(F)F)cc(=O)oc2c(CCC)c1OCCCCN1CCOC1=O
pEC50 [5]: 5.66

CCCc1cc2c(C(F)(F)F)cc(=O)oc2c(CCC)c1OCCCCN1CCCC1=O
EC50 [4]: Not Active
EC50 [5]: Not Active

CCCc1cc2c(C(F)(F)F)cc(=O)oc2c(CCC)c1OCCCCN1C(=O)C(C)N(C)C1=O (stereo not given)
pEC50 [4]: 5.77
pEC50 [5]: 5.89

CCCc1cc2c(C(F)(F)F)cc(=O)oc2c(CCC)c1OCCCCN1C(=O)N(C)C(C)(C)C1=O
pEC50 [4]: 4.96
pEC50 [5]: 5.33

CCCc1cc2c(C(F)(F)F)cc(=O)oc2c(CCC)c1OCCCCN1C(=O)NC(C)C1=O (stereo not given)
pEC50 [4]: 5.82
pEC50 [5]: 5.89

CCCc1cc2c(C(F)(F)F)cc(=O)oc2c(CCC)c1OCCCCN1C(=O)N(C)C(C)(c2ccccc2)C1=O (stereo not given)
EC50 [4]: Not Active
EC50 [5]: Not Active

CCCc1cc2c(C(F)(F)F)cc(=O)oc2c(CCC)c1OCCCCN1C(=O)NC(C)(c2ccccc2)C1=O (stereo not given)
EC50 [4]: Not Active
pEC50 [5]: 5.28

CCCc1cc2c(C(F)(F)F)cc(=O)oc2c(CCC)c1OCCCCN1C(=O)NC(C)(c2ccc(C)cc2)C1=O (stereo not given)
EC50 [4]: Not Active
pEC50 [5]: 5.62

CCCc1cc2c(C(F)(F)F)cc(=O)oc2c(CCC)c1OCCCCN1C(=O)NC(C)(c2ccccc2OC)C1=O (stereo not given)
EC50 [4]: Not Active
EC50 [5]: Not Active

CCCc1cc2c(C(F)(F)F)cc(=O)oc2c(CCC)c1OCCCCN1C(=O)NC(C)(c2cccc(OC)c2)C1=O (stereo not given)
EC50 [4]: Not Active
EC50 [5]: Not Active

CCCc1cc2c(C(F)(F)F)cc(=O)oc2c(CCC)c1OCCCCN1C(=O)NC(C)(c2ccc(OC)cc2)C1=O (stereo not given)
EC50 [4]: Not Active
pEC50 [5]: 6.02
